What was measured:
[1] = system: M. tuberculosis ATCC 25177; assay: BACTEC 460 radiometric growth inhibition bio-assay; format: cell-based, Mycobacterium tuberculosis; conditions: final concentration of 0.1 mg/ml; BACTEC 12B medium; growth index
[2] = system: white mice; assay: Animal toxicity bioassay (acute toxicity, intraperitoneal); format: in vivo; conditions: intraperitoneal injection, observed 14 days
Experimental: (§1) Animal Toxicity Bioassay. Acute toxicity was studied on white mice of both sexes with weight ranging between 18-26 grams under intraperitoneal injection of 2% solution of tested compound in starch (the compound was dissolved in starch slime and injected) on the basis of 0.1 ml of solution per 10 g of the animal weight. Each dose was tested on the group of 6 animals that were observed during 14 day period. (This method was approved by the Pharmacology committee of Russian Ministry of Health and has been widely used since 1968.) Averaged lethal dose (LD50) of the compound was computed using results of experiments on 5-7 groups of animals using the method of Litchfield and Wilkinson. (Belenkii M. L. “Elements of quantative determination of the pharmacological effect,” Leningrad, 1963, 71 pages).

[3] = system: human and non-human myeloma; assay: Activity against myeloma
[4] = Animal toxicity bioassay (acute toxicity, intraperitoneal); format: in vivo; conditions: both sexes, mouse, in vivo, ip; white mice, intraperitoneal injection, observed 14 days
Experimental: as §1

[5] = system: white mouse; conditions: intraperitoneal injection; cited from earlier work
[6] = system: man; conditions: cited from earlier work

**Q.** For `O=C(Oc1c(-c2nc3ccccc3oc2=O)c(=O)n2c(c1C(=O)c1ccccc1)c(=O)oc1ccccc12)c1ccccc1` [1F-18, 4-benzoyl-3-benzoyloxy-2-(2-oxo-2H-1,4-benzoxazin-3-yl)pyrido[2,1-c][1,4]benzoxazin-1,5-dione], which “percent activity against Mycobacterium tuberculosis” value [1] is on record?
**A.** 95%

**Q.** What about the LD50 [2] of the same compound?
**A.** > 2000 mg/kg

**Q.** And the “activity against human and non-human myeloma” value [3]?
**A.** 100%

**Q.** For `COc1ccc(C(=O)C(C(=O)Oc2c(C)cc(C)cc2C)=C2Nc3ccccc3OC2=O)cc1` [1F-19, 2,4,6-trimethylphenyl 2-(3,4-dihydro-2-oxo-2H-1,4-benzoxazin-3-ylidene)-3-p-methoxyphenyl-3-oxo-propanoate], which “percent activity against Mycobacterium tuberculosis” value [1] is on record?
**A.** 97%

**Q.** What about the LD50 at 14 day [4] of the same compound?
**A.** > 1000 mg/kg

**Q.** With `NNC(=O)c1ccncc1` [isoniazid, isonicotinic acid hydrazide] as the compound, how does the “LD50 (lethal dose 50 percent kill)” value [5] read?
**A.** 100 mg/kg

**Q.** And the “acute ingestion amount leading to mild toxicity” value ([6]; adults, acute ingestion)?
**A.** 1.5 g

**Q.** And the “ingestion amount that may be fatal” value ([6]; adults, acute ingestion)?
**A.** 6 to 10 g

**Q.** And the “ingestion amount usually fatal if not appropriately treated” value ([6]; adults, acute ingestion)?
**A.** 15 g

**Q.** What about the “overall mortality rate for acute isoniazid toxicity” value ([6]; estimated) of the same compound?
**A.** 19%

**Q.** And the hepatitis-related death rate ([6]; individuals who complete a full course of prophylaxis)?
**A.** 23.2-57.9 /100,000

**Q.** What about the mortality rate ([6]; individuals who develop overt isoniazid-induced hepatitis) of the same compound?
**A.** 10%

**Q.** And the “LCL0 (lowest published lethal concentration)” value ([6]; man)?
**A.** 100 mg/kg

**Q.** What about the “overall hepatitis-related death rate” value ([6]; patients using isoniazid prophylaxis) of the same compound?
**A.** approximately 0.001%
